According to US20210369710A1, “MODULATORS OF MYC FAMILY PROTO-ONCOGENE PROTEIN” (Nalo Therapeutics, priority 2019, published 2021):
One block for each compound: values may come before it.

Columns and labels:
[1] = target: T1, MycC Protein (Homo sapiens, UniProt P01106); experiment: Degradation of MycC protein, Western blot band density in cells; format: cell-based; conditions: HL-60 or SKNBE2 cells; 6 uL of compound (1 mM) added to 3 mL cells; 6 hours; Western blot band density (ImageJ)
T1 construct: endogenous in cells; host or cells: HL-60 or SKNBE2
Experimental: (§1) In a T150 flask was plated either 2×10^6 of HL-60 (human leukemia cell line) or SKNBE2 (neuroblastoma cell line) cells in a total of 30 mL containing Roswell Park Memorial Institute (RPMI) 1640 Medium (Thermo Fisher, Cat. #11875-085), 10% Fetal Bovine Serum (FBS, Thermo Fisher: Cat. #10437-028), 1% Penicillin/streptomycin (Thermo Fisher: Cat. #10378016), and 1% Amophotericin B (Thermo Fisher, Cat. #15290026). The cells were split every 72 hours by reseeding the HL-60 or SKNBE2 cells, and the passage number was noted. It is noteworthy that cell cultures that were above 40 passages were not used, and most experiments were done with cells of less than 30 passages.
(§2) In a 6-well cell culture plate, a total of 3 mL of either 1×10^6 cells/mL of HL-60 or SKNBE2 cells were seeded, resulting in a total of 3×10^6 cells per well. To each well containing 3 mL of either HL-60 or SKNBE2 cell line was added 6 uL of MycN modulating compound (1 mM) and the resulting plate was shaken from left to right, and not swirled. After 6 hours, the cells were placed in a 15 mL falcon tube and spun at 500 Gs at 4° C. in a swinging bucket centrifuge. The medium was then carefully removed without disturbing the pellet. The pellet was then washed with 3 mLs of chilled phosphate buffered saline (PBS) and subjected to the spin cycle. PBS was then removed and the pellet was lysed in 200 uL of radioimmunoprecipitation (RIPA) lysis buffer (Thermo Fisher: Cat. #899000) that is supplemented with protease and phosphatase inhibitors (Thermo Fisher: Cat. #A32959). The cell lysate was then subjected to spinning in a centrifuge for 10 minutes at 13000G at 4° C. The supernatant was then carefully transferred to a fresh eppendorf tube without disturbing the pellet (˜180 uL). The protein concentration of the cell lysate was then determined by using a bicinchoninic acid (BCA assay) according to manufacturer's protocol (Thermo Fisher: Cat. #23227).
(§3) Cell lysate, approximately 25 ug-30 ug, was loaded per well in a 4-20% polyacrylamide gel (Biorad. Cat. #5671094). After running the dye front off of the gel, the gel was transferred to a nitrocellulose membrane (Biorad: Cat. #1704159) using the transblot turbo system (Biorad: Cat. #1704150) according to manufacturer's protocol. After transferring for 30 minutes, the membrane was blocked with 5% BSA for 1 hour at room temperature. The BSA was then washed off and the primary antibody of choice (1:500) was added, and the membrane was incubated with the primary antibody at 4° C. for overnight. The next morning, the primary antibody was removed and the membrane was washed with 1×-TBST for 10 minutes and repeated three more times. Following the last wash, a secondary antibody (Molecular Devices. Cat. #R8209 or R8208) was added at 1:5000 dilution and incubated for 1 hour at room temperature. Following the incubation with the secondary antibody, the membrane was washed with 1×-TBST for 10 minutes and repeated three more times. Following the last wash, the membrane was washed with de-ionized water twice and dried for at least two hours. Once the membrane is completely dry, the Molecular Devices Spectra Max western system was used to observe the bands. The western image was saved and the band density was measured with ImageJ software.

[2] = target: T2, MycN Protein (Homo sapiens, UniProt P04198); experiment: Degradation of MycN protein, Western blot band density in cells; format: cell-based; conditions: HL-60 or SKNBE2 cells; 6 uL of compound (1 mM) added to 3 mL cells; 6 hours; Western blot band density (ImageJ)
T2 construct: endogenous in cells; host or cells: HL-60 or SKNBE2
T2 sequence (P04198 1-464): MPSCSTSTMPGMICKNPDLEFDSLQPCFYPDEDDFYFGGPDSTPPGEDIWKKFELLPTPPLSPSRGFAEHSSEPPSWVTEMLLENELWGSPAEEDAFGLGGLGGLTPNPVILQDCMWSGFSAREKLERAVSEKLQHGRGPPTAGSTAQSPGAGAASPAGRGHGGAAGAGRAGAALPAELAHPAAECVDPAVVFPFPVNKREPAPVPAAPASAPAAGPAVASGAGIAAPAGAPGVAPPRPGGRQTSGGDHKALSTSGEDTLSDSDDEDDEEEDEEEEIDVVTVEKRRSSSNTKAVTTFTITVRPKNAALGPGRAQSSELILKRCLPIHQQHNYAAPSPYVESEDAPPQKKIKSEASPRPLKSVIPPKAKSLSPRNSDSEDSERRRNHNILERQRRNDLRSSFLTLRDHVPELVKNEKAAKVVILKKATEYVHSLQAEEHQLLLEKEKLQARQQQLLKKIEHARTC
Experimental: as §1, §2, §3

T1 sequence (P01106 whole entry): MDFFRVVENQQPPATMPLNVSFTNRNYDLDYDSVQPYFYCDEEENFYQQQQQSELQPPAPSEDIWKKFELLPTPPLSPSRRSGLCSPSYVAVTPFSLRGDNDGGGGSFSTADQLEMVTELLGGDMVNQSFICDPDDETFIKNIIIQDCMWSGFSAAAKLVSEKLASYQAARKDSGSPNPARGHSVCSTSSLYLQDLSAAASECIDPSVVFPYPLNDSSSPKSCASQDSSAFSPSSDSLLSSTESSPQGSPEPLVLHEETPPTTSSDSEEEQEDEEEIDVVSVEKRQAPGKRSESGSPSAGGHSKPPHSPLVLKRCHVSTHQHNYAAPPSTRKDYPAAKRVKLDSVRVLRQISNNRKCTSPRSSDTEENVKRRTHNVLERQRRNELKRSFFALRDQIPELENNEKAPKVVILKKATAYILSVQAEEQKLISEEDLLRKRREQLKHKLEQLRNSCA

Structure (SMILES): O=C(NC1CCCC(N2CCCC2=O)C1)N[C@H]1CC[C@H](Nc2nccc(Nc3cc(C4CCCC4)[nH]n3)n2)CC1 (mixture of isomers) [Compound 27, 1-((1R,4R)-4-((4-((5-cyclopentyl-1H-pyrazol-3-yl)amino)pyrimidin-2-yl)amino)cyclohexyl)-3-(3-(2-oxopyrrolidin-1-yl)cyclohexyl)urea]
Dmax at 2 µM [1]: < 20%
Dmax at 2 µM [2]: < 20%

Structure (SMILES): N#Cc1ccc2c(c1)CC(NC(=O)N[C@H]1CC[C@H](Nc3nccc(Nc4cc(C5CCCC5)[nH]n4)n3)CC1)C2 (mixture of isomers) [Compound 11 (Racemic), 1-(5-cyano-2,3-dihydro-1H-inden-2-yl)-3-((1R,4R)-4-((4-((5-cyclopentyl-1H-pyrazol-3-yl)amino)pyrimidin-2-yl)amino)cyclohexyl)urea]
% Degradation of MycC [1]: **** (****: degradation 80-100%)
% Degradation of MycN [2]: **** (****: degradation 80-100%)

Structure (SMILES): CN(c1nccc(Nc2cc(C3CCCC3)[nH]n2)n1)C1CCC(NC(=O)NC2Cc3ccc(C#N)cc3C2)CC1 (racemic) [Compound 16 (Racemic), 1-(5-cyano-2,3-dihydro-1H-inden-2-yl)-3-((1R,4R)-4-((4-((5-cyclopentyl-1H-pyrazol-3-yl)amino)pyrimidin-2-yl)(methyl)amino)cyclohexyl)urea]
% Degradation of MycC [1]: **** (****: degradation 80-100%)
% Degradation of MycN [2]: **** (****: degradation 80-100%)

Structure (SMILES): CN(c1nccc(Nc2cc(C3CCCC3)[nH]n2)n1)C1CCC(NC(=O)N[C@H]2CCC[C@@H](C(F)(F)F)C2)CC1 (mixture of isomers) [Compound 121 (Racemic), 1-((1R,4S)-4-((4-((5-cyclopentyl-1H-pyrazol-3-yl)amino)pyrimidin-2-yl)(methyl)amino)cyclohexyl)-3-((1S,3R)-3-(trifluoromethyl)cyclohexyl)urea]
% Degradation of MycC [1]: *** (***: degradation 50-79%)
% Degradation of MycN [2]: *** (***: degradation 50-79%)

Structure (SMILES): CC(=O)N1CCC(NC(=O)N[C@H]2CC[C@H](Nc3nccc(Nc4cc(C5CCCC5)[nH]n4)n3)CC2)CC1 [Compound 2, 1-(1-acetylpiperidin-4-yl)-3-((1R,4R)-4-((4-((5-cyclopentyl-1H-pyrazol-3-yl)amino)pyrimidin-2-yl)amino)cyclohexyl)urea]
Dmax at 2 µM [1]: < 20%
Dmax at 2 µM [2]: 20 to 49%

Structure (SMILES): CC(NC(=O)N[C@H]1CC[C@H](Nc2nccc(Nc3cc(C4CCCC4)[nH]n3)n2)CC1)c1ccccn1 (some centres unmarked) [Compound 4]
Dmax at 2 µM [1]: 80 to 100%
Dmax at 2 µM [2]: 20 to 49%

Structure (SMILES): Cc1cc(Nc2ccnc(NC3CCC(N)CC3)n2)n[nH]1 [Compound 6, N^2-((1R,4R)-4-aminocyclohexyl)-N^4-(5-methyl-1H-pyrazol-3-yl)pyrimidine-2,4-diamine]
% Degradation of MycC [1]: ** (**: degradation 20-49%)
% Degradation of MycN [2]: * (*: degradation <20%)

Structure (SMILES): N#Cc1ccc2c(c1)CC(NC(=O)N[C@H]1CC[C@H](Nc3nccc(Nc4cc(C5CCCC5)[nH]n4)n3)CC1)C2 (stereo partly drawn) [Compound 11 (Fraction 1), 1-(5-cyano-2,3-dihydro-1H-inden-2-yl)-3-((1R,4R)-4-((4-((5-cyclopentyl-1H-pyrazol-3-yl)amino)pyrimidin-2-yl)amino)cyclohexyl)urea]
% Degradation of MycC [1]: **** (****: degradation 80-100%)
% Degradation of MycN [2]: ** (**: degradation 20-49%)

Structure (SMILES): O=C(NC1CC2CCC(C1)N2C1CC1)N[C@H]1CC[C@H](Nc2nccc(Nc3cc(C4CCCC4)[nH]n3)n2)CC1 (stereo partly drawn) [Compound 61, 1-((1R,4R)-4-((4-((5-cyclopentyl-1H-pyrazol-3-yl)amino)pyrimidin-2-yl)amino)cyclohexyl)-3-(8-cyclopropyl-8-azabicyclo[3.2.1]octan-3-yl)urea]
Dmax at 2 µM [2]: < 20%

Structure (SMILES): O=C(NC12CCN(CC1)CC2)N[C@H]1CC[C@H](Nc2nccc(Nc3cc(C4CCCC4)[nH]n3)n2)CC1 [Compound 68]
Dmax at 2 µM [2]: 20 to 49%

Structure (SMILES): O=C(Nc1cccc(C(F)(F)F)c1)N[C@@H]1CC[C@@H](Nc2nccc(Nc3cc(C4CCCC4)[nH]n3)n2)C1 [Compound 82]
Dmax at 2 µM [2]: 20 to 49%

Structure (SMILES): CN(c1nccc(Nc2cc(C3CCCC3)[nH]n2)n1)[C@H]1CC[C@H](NC(=O)Nc2cccc(C(F)(F)F)c2)CC1 [Compound 146, 1-((1R,4R)-4-((4-((5-cyclopentyl-1H-pyrazol-3-yl)amino)pyrimidin-2-yl)(methyl)amino)cyclohexyl)-3-(3-(trifluoromethyl)phenyl)urea]
Dmax at 2 µM [2]: 50 to 79%

Structure (SMILES): CN(c1nccc(Nc2cc(C3CC3)[nH]n2)n1)[C@H]1CC[C@H](NC(=O)Nc2cccc(C(F)(F)F)c2)CC1 [Compound 147, 1-((1R,4R)-4-((4-((5-cyclopropyl-1H-pyrazol-3-yl)amino)pyrimidin-2-yl)(methyl)amino)cyclohexyl)-3-(3-(trifluoromethyl)phenyl)urea]
Dmax at 2 µM [2]: 80 to 100%

Structure (SMILES): CN(c1nccc(Nc2cc(C3CC3)[nH]n2)n1)[C@H]1CC[C@H](NC(=O)NC2Cc3cc(F)c(F)cc3C2)CC1 [Compound 151, 1-((1R,4R)-4-((4-((5-cyclopropyl-1H-pyrazol-3-yl)amino)pyrimidin-2-yl)(methyl)amino)cyclohexyl)-3-(5,6-difluoro-2,3-dihydro-1H-inden-2-yl)urea]
Dmax at 2 µM [2]: 50 to 79%

Results, then the compound that gave them:

Dmax at 2 µM [1]: 50 to 79%
Dmax at 2 µM [2]: 20 to 49%
Structure (SMILES): CS(=O)(=O)c1ccc2c(c1)CC(NC(=O)N[C@H]1CC[C@H](Nc3nccc(Nc4cc(C5CCCC5)[nH]n4)n3)CC1)C2 (stereo partly drawn) [Compound 3, 1-((1R,4R)-4-((4-((5-cyclopentyl-1H-pyrazol-3-yl)amino)pyrimidin-2-yl)amino)cyclohexyl)-3-(5-(methylsulfonyl)-2,3-dihydro-1H-inden-2-yl)urea]

Dmax at 2 µM [1]: < 20%
Dmax at 2 µM [2]: 20 to 49%
Structure (SMILES): N#Cc1ccc2c(c1)CC(NC(=O)N[C@H]1CC[C@H](Nc3nccc(Nc4cc(C5CCOC5)[nH]n4)n3)CC1)C2 (stereo partly drawn) [Compound 5, 1-(5-cyano-2,3-dihydro-1H-indene-2-yl)-3-((1R,4R)-4-((4-((5-(tetrahydrofuran-3-yl)-1H-pyrazol-3-yl)amino)pyrimidine-2-yl)amino)cyclohexyl)urea]

Dmax at 2 µM [1]: 20 to 49%
Dmax at 2 µM [2]: < 20%
Structure (SMILES): CCc1cc(Nc2ccnc(N[C@H]3CC[C@H](NC(=O)NC4Cc5ccc(C#N)cc5C4)CC3)n2)n[nH]1 (stereo partly drawn) [Compound 8, 1-(5-cyano-2,3-dihydro-1H-inden-2-yl)-3-((1R,4R)-4-((4-((5-ethyl-1H-pyrazol-3-yl)amino)pyrimidin-2-yl)amino)cyclohexyl)urea]

Dmax at 2 µM [2]: 20 to 49%
Structure (SMILES): CN1CCC(NC(=O)N[C@H]2CC[C@H](Nc3nccc(Nc4cc(C5CCCC5)[nH]n4)n3)CC2)CC1 [Compound 97, 1-((1R,4R)-4-((4-((5-cyclopentyl-1H-pyrazol-3-yl)amino)pyrimidin-2-yl)amino)cyclohexyl)-3-(1-methylpiperidin-4-yl)urea]

Dmax at 2 µM [2]: < 20%
Structure (SMILES): CN(C)C(=N)c1ccc2c(c1)CC(NC(=O)N[C@H]1CC[C@H](Nc3nccc(Nc4cc(C5CCCC5)[nH]n4)n3)CC1)C2 (some centres unmarked) [Compound 98]

Dmax at 2 µM [2]: < 20%
Structure (SMILES): N=C(NC1COC1)c1ccc2c(c1)CC(NC(=O)N[C@H]1CC[C@H](Nc3nccc(Nc4cc(C5CCCC5)[nH]n4)n3)CC1)C2 (some centres unmarked) [Compound 99]

Dmax at 2 µM [2]: < 20%
Structure (SMILES): O=C(NC1Cc2ccc(C3=NCC(O)CN3)cc2C1)N[C@H]1CC[C@H](Nc2nccc(Nc3cc(C4CCCC4)[nH]n3)n2)CC1 (some centres unmarked) [Compound 100]
